Experimental data taken from patent publication US7211561B2, “Method for inducing selective cell death of malignant cells by activation of calcium-activated potassium channels (KCa)” (Cedars-Sinai Medical Center, priority 2001, dated 2007).
Where a name gives a salt, the structure may show the parent alone.

What was measured:
[1] = test system: PTK activity in RG2 cell lysate; assay: Protein tyrosine kinase (PTK) assay; type: biochemical, rat; conditions: 1–50 μM (FIG. 10)
Description: A PTK assay kit (The Oncogene Research Products, Boston, Mass.) was used to determine the presence and relative amounts of protein kinase activity in tissue cytosols and cell extracts. Briefly, 1×10^4 RG2 cells seeded in a 50-mL culture flask, and allowed to achieve confluency to form a monolayer at 37° C. in a CO2 incubator.
Briefly, RG2 cells were harvested after trypsinization, and cells were pelleted by centrifugation. Cells were resuspended with extraction buffer (20 mM Tris, pH 7.4, 50 mM NaCl, 1 mM EDTA, 1 mM EGTA, 0.2 mM PMSF, 1 μg/mL pepstatin, 0.5 μg/mL leupetin, 0.2 mM Na3VO4, 5 mM mercaptoethanol, 0.1% Triton X-100), and cells were lysed using a cell homogenizer. After centrifugation, supernatant was separated from the pellet for PTK assay. The supernatant was treated with superoxide dismutase. Pervanadate (100 mM) was used in the PTK assay to inhibit […] activity, and protein concentration was determined by Lowry's method using a Bio-Rad protein assay kit. […]
Assay for PTK activity in RG2 cell-lysates was then performed according to the protocol supplied by the PTK assay kit's manufacturer. After adding the stop solution, absorbance measured in each well at 450 nm using a Spectramax Plus (Molecular Devices, Sunnyvale, Calif.).

[2] = test system: rat and human malignant cells studied, as well as normal cells; assay: Cell proliferation assay (WST-1, OD 450 nm), all cell lines; type: cell-based; conditions: data not shown
Description: Primary cell lines were prepared from human gliomas (glioblastoma multiforme [GBM] or astrocytoma) or established rat glioma cell lines (RG2, C6 and 9L) were used. Cultured human normal cell lines, brain microvessel endothelial cells (HBMVEC), or fetal astrocytes were used.
Cells (5×10^4 cells) were cultured in each well of 96-well microtiter culture plates and were allowed to achieve confluency to form a monolayer of cells in each well. For dose response studies cells were incubated with different concentrations (1–100 μg/mL) of NS-1619 or minoxidil sulfate for 4 hours at 37° C. in a CO2 (5%) incubator. Cells washed twice carefully with respective medium, and allowed to incubate overnight at 37° C. under 5% CO2. The following day, cells were incubated with WST-1 reagent (Boehringer Mannheim) at 37° C. in a CO2 (5%) incubator for 60–90 minutes, and optical density at 450 nm was measured with a 96-well plate reader. The magnitude of OD indicated the number of viable cells, greater the OD, higher the number of viable cells, correlated a standard curve of cell numbers.

SMILES | PTK activity [1] | sensitivity (cell proliferation) [2]
CC(C)[C@@H]1NC(=O)[C@H](C)OC(=O)[C@@H](C(C)C)NC(=O)[C@@H](C(C)C)OC(=O)[C@H](C(C)C)NC(=O)[C@H](C)OC(=O)[C@@H](C(C)C)NC(=O)[C@@H](C(C)C)OC(=O)[C@H](C(C)C)NC(=O)[C@H](C)OC(=O)[C@@H](C(C)C)NC(=O)[C@@H](C(C)C)OC1=O [Valinomycin] | inhibited PTK activity in RG2 cell lysate in a dose-dependent manner | 
Nc1cc(N2CCCCC2)nc(N)[n+]1OS(=O)(=O)[O-] [minoxidil sulfate] |  | insensitive
